The species named for assay [1] is Homo sapiens. Put plainly: Activation of PP2A in human PLC5 cells assessed as minimal concentration causing increase in protein phosphatase activity incubated for 24 hrs using phosphopeptide substrate incubated for 10 mins by malachite green-phosphate complex assay. Type of assay: cell-based.
The species entered for assay [2] is Homo sapiens. Put plainly: Activation of PP2A in human HA22T cells assessed as minimal concentration causing increase in protein phosphatase activity incubated for 24 hrs using phosphopeptide substrate incubated for 10 mins by malachite green-phosphate complex assay. In kind it is cell-based.
For assay [3], the species on record is Homo sapiens. Briefly: Activation of PP2A in human Hep3B cells assessed as minimal concentration causing increase in protein phosphatase activity incubated for 24 hrs using phosphopeptide substrate incubated for 10 mins by malachite green-phosphate complex assay. Type of assay: cell-based.
Assay [4] is filed under the species Homo sapiens. Put plainly: Activation of PP2A in human SKHEP1 cells assessed as minimal concentration causing increase in protein phosphatase activity incubated for 24 hrs using phosphopeptide substrate incubated for 10 mins by malachite green-phosphate complex assay. In kind it is cell-based.
For assay [5], the species on record is Homo sapiens. Put plainly: Inhibition of His-tagged recombinant human SET1 protein (1 to 290 amino acids) expressed in Escherichia coli interaction with N-terminal GST-tagged recombinant human PP2A-C (1 to 309 amino acids) assessed as minimal concentration causing disruption of SET-PP2Ac binding by SPR assay.
The species entered for assay [6] is Homo sapiens. Briefly: Cytotoxicity against human PLC5 cells assessed as reduction in cell viability at 0.5 to 4 uM incubated for 48 hrs by MTT assay. In kind it is functional, cell-based.
For assay [7], the system named is Homo sapiens. Briefly: Antitumor activity against human PLC5 cells xenografted in mouse assessed as reduction in tumor size at 10 mg/kg dosed for 4 weeks. In kind it is functional, organism-based. On the technique in general: In xenograft studies the graft and the host belong to different species.
The subject of assay [8] is Hep 3B2. Put plainly: Cytotoxicity against human Hep3B cells assessed as reduction in cell viability incubated for 48 hrs by MTT assay. In kind it is functional, cell-based. For orientation: Tetrazolium assays rely on reduction of a dye to a coloured formazan, in cell work by metabolically active cells.
The species named for assay [9] is Homo sapiens. Briefly: Cytotoxicity against human PLC5 cells assessed as reduction in cell viability incubated for 48 hrs by MTT assay. Type of assay: functional, cell-based.
The test system of assay [10] is Hep 3B2. Briefly: Induction of apoptosis in human Hep3B cells assessed as accumulation at subG1 phase at 0.5 to 4 uM by flow cytometry. Type of assay: functional, cell-based. For orientation: A flow cytometer gives signals particle by particle.
For assay [11], the system named is HA22T cell line. Briefly: Induction of apoptosis in human HA22T cells assessed as accumulation at subG1 phase at 0.5 to 4 uM by flow cytometry. Type of assay: functional, cell-based.
Assay [12] has as its system SK-HEP1. Briefly: Cytotoxicity against human SKHEP1 cells assessed as reduction in cell viability incubated for 48 hrs by MTT assay. In kind it is functional, cell-based.
The species entered for assay [13] is Homo sapiens. Briefly: Induction of apoptosis in human PLC5 cells assessed as accumulation at subG1 phase at 0.5 to 4 uM by flow cytometry. In kind it is functional, cell-based.
In assay [14] the test system is HA22T cell line. Briefly: Cytotoxicity against human HA22T cells assessed as reduction in cell viability incubated for 48 hrs by MTT assay. Type of assay: functional, cell-based.
Assay [15] has as its system SK-HEP1. Briefly: Induction of apoptosis in human SKHEP1 cells assessed as accumulation at subG1 phase at 0.5 to 4 uM by flow cytometry. Type of assay: functional, cell-based.

Active and inactive are the calls of the source. No cut-off for these calls is given here. Where only a bound is given, the exact number is not on record here.

Data on 21 molecules can be found in ChEMBL document CHEMBL4420066, “Aryl amine substituted quinoxaline used as anticancer drugs” (2017).

On to `FS(F)(F)(F)(F)c1ccc(Nc2nc3ccccc3nc2Cl)cc1`, for which the MEC in the assay listed under Homo sapiens [1], in the assay filed under Homo sapiens [2], in the assay filed under Homo sapiens [3], in the assay listed under Homo sapiens [4] and in the assay filed under Homo sapiens [5] was over 200 nM each time.

Regarding `Clc1nc2ccccc2nc1NCc1ccccc1`, the MEC in the assay filed under Homo sapiens [1], in the assay filed under Homo sapiens [2], in the assay listed under Homo sapiens [3], in the assay listed under Homo sapiens [4] and in the assay filed under Homo sapiens [5] was over 200 nM throughout.

With `Clc1cc(Cl)cc(Nc2nc3ccccc3nc2Cl)c1`, the MEC in the assay filed under Homo sapiens [1] was over 200 nM; in the assay listed under Homo sapiens [2], over 200 nM; in the assay filed under Homo sapiens [3] it was over 200 nM; in the assay listed under Homo sapiens [4], over 200 nM; in the assay filed under Homo sapiens [5], 100 to 200 nM.

Turning to `C#Cc1cccc(Nc2nc3cc([N+](=O)[O-])ccc3nc2Nc2ccc(OC)cc2)c1`, the MEC in the assay filed under Homo sapiens [1], in the assay listed under Homo sapiens [2], in the assay listed under Homo sapiens [3], in the assay filed under Homo sapiens [4] and in the assay filed under Homo sapiens [5] was 100 to 200 nM throughout.

On to `FS(F)(F)(F)(F)c1ccc(Nc2nc3ccccc3nc2Nc2ccc(S(F)(F)(F)(F)F)cc2)cc1`, for which the MEC in the assay filed under Homo sapiens [1] was under 50 nM; in the assay filed under Homo sapiens [2], under 50 nM; in the assay listed under Homo sapiens [3], under 50 nM; in the assay listed under Homo sapiens [4], under 50 nM; in the assay filed under Homo sapiens [5], 50 nM.

For the molecule `COc1ccc(Nc2nc3ccc([N+](=O)[O-])cc3nc2Nc2cccc(O)c2)cc1`, the MEC in the assay filed under Homo sapiens [1], in the assay filed under Homo sapiens [2], in the assay filed under Homo sapiens [3] and in the assay listed under Homo sapiens [4] was under 100 nM in each case.

Take `C#Cc1cccc(Nc2nc3ccc([N+](=O)[O-])cc3nc2Nc2cccc(C#C)c2)c1`: the MEC in the assay filed under Homo sapiens [1] is under 50 nM; in the assay listed under Homo sapiens [2] it was under 50 nM; in the assay listed under Homo sapiens [3], under 50 nM; in the assay listed under Homo sapiens [4], under 50 nM; in the assay listed under Homo sapiens [5], 50 to 100 nM.

Turning to `Clc1cccc(Nc2nc3ccccc3nc2Cl)c1`, the MEC in the assay listed under Homo sapiens [1], in the assay filed under Homo sapiens [2], in the assay filed under Homo sapiens [3], in the assay listed under Homo sapiens [4] and in the assay filed under Homo sapiens [5] was over 200 nM in each case.

For `FC(F)(F)c1cc(Nc2nc3ccccc3nc2Cl)cc(C(F)(F)F)c1`, the MEC in the assay listed under Homo sapiens [1], in the assay listed under Homo sapiens [2], in the assay filed under Homo sapiens [3], in the assay listed under Homo sapiens [4] and in the assay filed under Homo sapiens [5] was over 200 nM in each case.

In the case of `FC(F)(F)Oc1ccc(Nc2nc3ccccc3nc2Cl)cc1`, the MEC in the assay listed under Homo sapiens [1], in the assay filed under Homo sapiens [2], in the assay listed under Homo sapiens [3], in the assay filed under Homo sapiens [4] and in the assay listed under Homo sapiens [5] was over 200 nM throughout.

Regarding `Oc1ccc(Nc2nc3ccccc3nc2Nc2ccc(O)cc2)cc1`, the MEC in the assay filed under Homo sapiens [1] was 100 to 200 nM; in the assay filed under Homo sapiens [2], 100 to 200 nM; in the assay filed under Homo sapiens [3], 100 to 200 nM; in the assay filed under Homo sapiens [4], 100 to 200 nM; in the assay listed under Homo sapiens [5] it was under 100 nM.

As for `O=[N+]([O-])c1ccc2nc(Nc3cccc(Br)c3)c(Nc3cccc(Br)c3)nc2c1`, the MEC in the assay filed under Homo sapiens [1], in the assay filed under Homo sapiens [2], in the assay filed under Homo sapiens [3], in the assay filed under Homo sapiens [4] and in the assay filed under Homo sapiens [5] was over 200 nM throughout.

In the case of `FC(F)(F)Oc1ccc(Nc2nc3ccccc3nc2Nc2ccc(OC(F)(F)F)cc2)cc1`, the MEC in the assay filed under Homo sapiens [1] is 50 to 100 nM; in the assay listed under Homo sapiens [2], 50 to 100 nM; in the assay filed under Homo sapiens [3], 50 to 100 nM; in the assay filed under Homo sapiens [4] it was 50 to 100 nM; in the assay listed under Homo sapiens [5], under 100 nM.

Turning to `FC(F)(F)c1cc(Nc2nc3ccccc3nc2Nc2ccc(Cl)c(C(F)(F)F)c2)ccc1Cl`, the MEC in the assay listed under Homo sapiens [1] is 100 to 200 nM; in the assay filed under Homo sapiens [2] it was 100 to 200 nM; in the assay filed under Homo sapiens [3], 100 to 200 nM; in the assay listed under Homo sapiens [4] it was 100 to 200 nM; in the assay filed under Homo sapiens [5], under 100 nM.

As for `CNC(=O)c1cc(Oc2ccc(NC(=O)Nc3ccc(Cl)c(C(F)(F)F)c3)cc2)ccn1`, the outcome in the assay filed under Homo sapiens [6] and in the assay on Homo sapiens [7] was Active.

As for `O=[N+]([O-])c1cccc(Nc2nc3ccccc3nc2Cl)c1`, the MEC in the assay filed under Homo sapiens [1], in the assay filed under Homo sapiens [2], in the assay filed under Homo sapiens [3], in the assay filed under Homo sapiens [4] and in the assay filed under Homo sapiens [5] was over 200 nM in each case.

For `C#Cc1cccc(Nc2ncnc3cc(OCCOC)c(OCCOC)cc23)c1`, the outcome in the assay on Hep 3B2 [8], in the assay filed under Homo sapiens [9], in the assay on Hep 3B2 [10], in the assay with HA22T cell line [11], in the assay with SK-HEP1 [12] and in the assay filed under Homo sapiens [13] was Active. Also, the outcome in the assay with HA22T cell line [14] and in the assay with SK-HEP1 [15] was Active.

In the case of `Clc1nc2ccccc2nc1Nc1ccccc1`, the MEC in the assay filed under Homo sapiens [1], in the assay listed under Homo sapiens [2], in the assay listed under Homo sapiens [3], in the assay filed under Homo sapiens [4] and in the assay filed under Homo sapiens [5] was over 200 nM each time.

Regarding `Nc1ccc2nc(Nc3ccc(C(F)(F)F)cc3)c(Nc3ccc(C(F)(F)F)cc3)nc2c1`, the MEC in the assay filed under Homo sapiens [1], in the assay filed under Homo sapiens [2], in the assay filed under Homo sapiens [3], in the assay filed under Homo sapiens [4] and in the assay filed under Homo sapiens [5] was over 200 nM each time.

Turning to `COc1cccc(Nc2nc3ccc([N+](=O)[O-])cc3nc2Nc2cccc(OC)c2)c1`, the MEC in the assay filed under Homo sapiens [1], in the assay filed under Homo sapiens [2], in the assay filed under Homo sapiens [3], in the assay filed under Homo sapiens [4] and in the assay listed under Homo sapiens [5] was over 200 nM throughout.

With `O=[N+]([O-])c1ccc2nc(Nc3cccc(C(F)(F)F)c3)c(Nc3cccc(C(F)(F)F)c3)nc2c1`, the MEC in the assay listed under Homo sapiens [1], in the assay listed under Homo sapiens [2], in the assay listed under Homo sapiens [3], in the assay filed under Homo sapiens [4] and in the assay listed under Homo sapiens [5] was over 200 nM each time.
